Like-named read-outs stand apart in the source and are kept apart here. Marks after values point to notes of the source that are not given here.
Tests used:
Format in all cases: in vivo
Venturia inaequalis = assay: Foliar fungal disease test on plants: Venturia inaequalis (Vi)
Protocol: (§1) The compounds were tested against a variety of foliar fungal diseases of plants. The technique employed was as follows.
(§2) The plants were grown in John Innes Potting Compost (No.1 or 2) in 4 cm diameter minipots. The test compounds were formulated either by bead milling with aqueous Dispersol T or as a solution in acetone or acetone/ethanol which was diluted to the required concentration immediately before use. For the foliage diseases, the formulations (100 ppm active ingredient except where otherwise indicated) were sprayed onto the foliage and applied to the roots of the plants in the soil. The sprays were applied to maximum retention and the root drenches to a final concentration equivalent to approximately 40 ppm a.i. in dry soil. Tween 20, to give a final concentration of 0.05%, was added when the sprays were applied to cereals.
(§3) For most of the tests the compound was applied to the soil (roots) and to the foliage (by spraying) one or two days before the plant was inoculated with the disease. An exception was the test on Erysiphe graminis in which the plants were inoculated 24 hours before treatment. Foliar pathogens were applied by spray as spore suspensions onto the leaves of test plants. After inoculation, the plants were put into an appropriate environment to allow infection to proceed and then incubated until the disease was ready for assessment. The period between inoculation and assessment varied from four to fourteen days according to the disease and environment.
(§4) The disease control vas recorded by the following grading:
(§5) 3=trace-5% of disease on untreated plants
(§6) 2=6-25% of disease on untreated plants
(§7) 1=26-59% of disease on untreated plants
(§8) 0=60-100% of disease on untreated plants

Erysiphe graminis hordei = assay: Foliar fungal disease test on plants: Erysiphe graminis hordei (Egh)
Protocol: as §1, §2, §3, §4, §5, §6, §7, §8
Egh Erysiphe graminis hordei

Plasmopara viticola = assay: Foliar fungal disease test on plants: Plasmopara viticola (Pv)
Protocol: as §1, §2, §3, §4, §5, §6, §7, §8

Puccinia recondita = assay: Foliar fungal disease test on plants: Puccinia recondita (Pr)
Protocol: as §1, §2, §3, §4, §5, §6, §7, §8

[1] = system: Phytophthora infestans lycopersici
Pyricularia oryzae = system: Pyricularia oryzae
[2] = 100 ppm active ingredient foliar spray plus root drench (approx. 40 ppm a.i. in dry soil), one or two days before inoculation
[3] = 100 ppm active ingredient foliar spray plus root drench (approx. 40 ppm a.i. in dry soil), plants inoculated 24 hours before treatment

Structure (SMILES)	disease control grading, Vi (Venturia inaegualis) (Venturia inaequalis; [2])	disease control grading, Egh (Erysiphe graminis hordei) (Erysiphe graminis hordei; [3])	disease control grading, Pv (Plasmopara viticola) (Plasmopara viticola; [2])	disease control grading, Pr (Puccinia recondita) (Puccinia recondita; [2])	disease control grading, Pil (Phytophthora infestans lycopersici) [1, 2]	disease control grading, Po (Pyricularia oryzae) (Pyricularia oryzae; [2])	disease control grading, Vi (Venturia inaegualis) (Venturia inaequalis; 10 ppm foliar application only)	disease control grading, Egh (Erysiphe graminis hordei) (Erysiphe graminis hordei; 10 ppm foliar application only)	disease control grading, Pv (Plasmopara viticola) (Plasmopara viticola; 10 ppm foliar application only)	disease control grading, Pr (Puccinia recondita) (Puccinia recondita; 10 ppm foliar application only)	disease control grading, Pil (Phytophthora infestans lycopersici) ([1]; 10 ppm foliar application only)	disease control grading, Po (Pyricularia oryzae) (Pyricularia oryzae; 10 ppm foliar application only)
CO/C=C(/C(=O)OC)c1ccccc1Oc1cc(Sc2ccccc2)ncn1 [1 of Table I]	4 (4=no disease)	4 (4=no disease)	4 (4=no disease)	4 (4=no disease)	4 (4=no disease)	4 (4=no disease)						
CO/C=C(/C(=O)OC)c1ccccc1Oc1cc([S+]([O-])c2ccccc2)ncn1 (centres unmarked) [2 of Table I]							0^a (0=60-100% of disease on untreated plants)	0^a (0=60-100% of disease on untreated plants)	4^a (4=no disease)	0^a (0=60-100% of disease on untreated plants)	0^a (0=60-100% of disease on untreated plants)	0^a (0=60-100% of disease on untreated plants)
CO/C=C(/C(=O)OC)c1ccccc1Oc1cc(S(=O)(=O)c2ccccc2)ncn1 [3 of Table I]	4 (4=no disease)	0 (0=60-100% of disease on untreated plants)	4 (4=no disease)	3 (3=trace-5% of disease on untreated plants)	0 (0=60-100% of disease on untreated plants)	2 (2=6-25% of disease on untreated plants)						
CO/C=C(/C(=O)OC)c1ccccc1Oc1cc(OCCc2ccccc2)ncn1 [96 of Table I]		4 (4=no disease)	4 (4=no disease)	4 (4=no disease)	4 (4=no disease)	3 (3=trace-5% of disease on untreated plants)						
CO/C=C(/C(=O)OC)c1ccccc1Oc1cc(Sc2ccccc2C#N)ncn1 [134 of Table I]		4 (4=no disease)	4 (4=no disease)	4 (4=no disease)		2 (2=6-25% of disease on untreated plants)						
CO/C=C(/C(=O)OC)c1ccccc1Oc1cc([S+]([O-])c2ccccn2)ncn1 (centres unmarked) [355 of Table I]	4 (4=no disease)	4 (4=no disease)	0 (0=60-100% of disease on untreated plants)	0 (0=60-100% of disease on untreated plants)	0 (0=60-100% of disease on untreated plants)							
CO/C=C(/C(=O)OC)c1ccccc1Oc1cc(OCCc2ccccc2C#N)ncn1 [357 of Table I]	4 (4=no disease)	4 (4=no disease)	4 (4=no disease)	4 (4=no disease)	4 (4=no disease)	4 (4=no disease)						
CO/C=C(/C(=O)OC)c1ccccc1Oc1cc(OCCc2ccccc2[N+](=O)[O-])ncn1 [358 of Table I]	4 (4=no disease)	4 (4=no disease)	4 (4=no disease)	4 (4=no disease)	4 (4=no disease)	4 (4=no disease)						
CO/C=C(/C(=O)OC)c1ccccc1Oc1cc(OCCCc2ccccc2)ncn1 [360 of Table I]	4 (4=no disease)	4 (4=no disease)	4 (4=no disease)	4 (4=no disease)	4 (4=no disease)	4 (4=no disease)						

Source: patent publication US6777412B2 (priority 1990, dated 2004)
